Patent US10414891B2, “Polyurethane curatives” (The Shepherd Chemical Company, priority 2015, dated 2019)

What was measured:
[1] = Accelerated aging of curatives in polyol mix with water and temperature; type: physicochemical; settings: curative 2.0 parts
Text: [Note: polyols supplied to Shepherd as their 4-component polyol systems by Huntsman.] BiCAT 8108 is bismuth neodecanoate, 20 wt % bismuth.

[2] = Moisture stability of curative in polyol side of two-part TDI spray-foam system; type: physicochemical
Experimental: BiCAT 8842 was used in a two-part polyurethane system (TDI) for spray-foam applications. The BiCAT 8842 was added at 0.125 wt % to the polyol side (B-part). In addition, the polyol side contained 2.5 wt % water. […] The same dosage of stannous octoate curative was added to the TDI-tin-based control formulation.

[3] = DAY 1, DI water 2.5 parts, oven 130° F.
[4] = DAY 2, DI water 2.5 parts, oven 130° F.
[5] = DAY 3, DI water 2.5 parts, oven 130° F.
[6] = DAY 4, DI water 2.5 parts, oven 160° F.
[7] = DAY 5, DI water 4.0 parts, oven 160° F.
[8] = DAY 6, DI water 4.0 parts, oven 160° F.

Substance | Stability [1, 3] | Stability [1, 4] | Stability [1, 5] | Stability [1, 6] | Stability [1, 7] | Stability [1, 8] | time until formulation began to turn white (bismuth hydrolysis to the hydroxide) ([2]; same use level, polyol side containing 2.5 wt % water) [min] | stability in the presence of moisture ([2]; 0.125 wt % in polyol side (B-part) containing 2.5 wt % water)
bismuth neodecanoate [BiCAT 8108, reference compound] | transparent | transparent | transparent | transparent | very sl. hazy | opaque; ppt formation |  | 
bismuth neodecanoate [reference compound] |  |  |  |  |  |  | ~14 | 
bismuth, 1,1′,1″,1′″-(1,2-ethanediyldinitrilo)tetrakis[2-propanol] neodecanoate complexes [Curative 8840] | transparent | transparent | transparent | transparent | transparent | transparent |  | 
bismuth, 2,2′,2″,2′″-(1,2-ethanediyldinitrilo)tetrakis[ethanol] neodecanoate complexes [Curative 8842] | transparent | transparent | transparent | transparent | transparent | transparent |  | remained stable for many weeks
